We go through 13 compounds from patent US10800791B2, “Triazole ACC inhibitors and uses thereof” (Gilead Apollo, LLC, priority 2015, dated 2020).

Values after ≈ are worked out from the molar mass of the structure shown. Where two headings read alike, the source gives them in different places. Bounds are passed on as bounds.

What all share (assay type): cell-based
Test [1] has as its system Collectotrichum graminicola (Cg). As to the kind of experiment: Growth inhibition assay of fungal pathogens, Cg. The conditions noted are these: 48 h. In a few lines: (§1)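 Inhibition percentages reflect 48 h OD600 and visual scores relative to a 2% DMSO control. Test concentrations were 50, 10, 2 ppm or 2, 0.4, 0.08 ppm final, applied to spores in 17% V8 medium.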
The test system of test [2] is Fusarium moniliforme (Fm). As to the kind of experiment: Growth inhibition assay of fungal pathogens, Fm. The conditions noted are these: for IC90: Fusarium verticillioides, 48 h, read-out: Concentration at 90% Inhibition Fm. An outline of the steps:
as §1

The next test relates to Septoria tritici (St). Description: Growth inhibition assay of fungal pathogens, St. The conditions noted are these: Zymoseptoria tritici, 48 h. In a few lines: as §1
The mark [3] stands for this setting: Collectotrichum graminicola, growth inhibition at 48 hours vs 2% DMSO control, read-out: Concentration at 90% Inhibition Cg.
The mark [4] stands for this setting: Collectotrichum graminicola, growth inhibition vs 2% DMSO control at 48 hours, read-out: Concentration at 90% Inhibition Cg.
[5] abbreviates: Fusarium moniliforme, growth inhibition at 48 hours vs 2% DMSO control.
The mark [6] stands for this setting: Fusarium moniliforme, growth inhibition vs 2% DMSO control at 48 hours.
Where [7] appears, read: Septoria tritici, growth inhibition at 48 hours vs 2% DMSO control, read-out: Concentration at 90% Inhibition St.
Setting [8] is: Septoria tritici, growth inhibition vs 2% DMSO control at 48 hours, read-out: Concentration at 90% Inhibition St.
The mark [9] stands for this setting: read-out: Concentration at 90% Inhibition Cg, Collectotrichum graminicola, growth inhibition at 48 hours vs 2% DMSO control.
[10] abbreviates: read-out: Concentration at 90% Inhibition Cg, Collectotrichum graminicola, growth inhibition vs 2% DMSO control at 48 hours.
The mark [11] stands for this setting: read-out: Concentration at 90% Inhibition St, Septoria tritici, growth inhibition at 48 hours vs 2% DMSO control.
Setting [12] is: read-out: Concentration at 90% Inhibition St, Septoria tritici, growth inhibition vs 2% DMSO control at 48 hours.

With `COc1ccc(F)cc1[C@H](Cn1c(=O)n(C(C)(C)C(N)=O)c(=O)c2c(C)c(-n3nccn3)sc21)OC1CCOCC1` [Compound I-1], the IC90 in test [1] (setting [3]) is 2 µg/mL (≈ 3.41 µM); in test [1] (setting [4]), 2 µg/mL (≈ 3.41 µM); in test [2] (setting [5]), 0.4 µg/mL (≈ 0.682 µM); in test [2] (setting [6]), 0.4 µg/mL (≈ 0.682 µM); in the test on Septoria tritici (St) (setting [7]), above 50 µg/mL; with Septoria tritici (St) (setting [8]), above 50 µg/mL.
Take `COc1ccc(F)cc1[C@H](Cn1c(=O)n(C(C)(C)C(N)=O)c(=O)c2c(C)c(-n3nccn3)sc21)OC(C)C` [Compound I-2, (R)-2-(1-(2-(5-fluoro-2-methoxyphenyl)-2-isopropoxyethyl)-5-methyl-2,4-dioxo-6-(2H-1,2,3-triazol-2-yl)-1,4-dihydrothieno[2,3-d]pyrimidin-3(2H)-yl)-2-methylpropanamide]: the IC90 was 2 µg/mL (≈ 3.67 µM) in test [1] (setting [3]); 2 µg/mL (≈ 3.67 µM) in test [1] (setting [4]); 0.4 µg/mL (≈ 0.734 µM) in test [2] (setting [5]); 0.4 µg/mL (≈ 0.734 µM) in test [2] (setting [6]); above 50 µg/mL in the test on Septoria tritici (St) (setting [7]); above 50 µg/mL with Septoria tritici (St) (setting [8]).
Turning to `CCNC(=O)C(C)(C)n1c(=O)c2c(C)c(-n3nccn3)sc2n(C[C@H](OC(C)C)c2cc(F)ccc2OC)c1=O` [Compound I-3, (R)—N-ethyl-2-(1-(2-(5-fluoro-2-methoxyphenyl)-2-isopropoxyethyl)-5-methyl-2,4-dioxo-6-(2H-1,2,3-triazol-2-yl)-1,4-dihydrothieno[2,3-d]pyrimidin-3(2H)-yl)-2-methylpropanamide], the IC90 in test [1] (setting [9]) is 0.4 µg/mL (≈ 0.698 µM); in test [1] (setting [10]), 0.4 µg/mL (≈ 0.698 µM); in test [2], 0.08 µg/mL (≈ 0.14 µM); in the test with Septoria tritici (St) (setting [11]), 10 µg/mL (≈ 17.5 µM); in the test with Septoria tritici (St) (setting [12]) it was above 50 µg/mL. The “Concentration at 90% Inhibition Fm” value in test [2] (setting [5]) is reported as “AA (compound concentration of 0.08 ppm at 90% inhibition of fungal pathogens)”.
In the case of `COc1ccc(F)cc1[C@H](Cn1c(=O)n(C(C)(C)C(=O)NC(C)C)c(=O)c2c(C)c(-n3nccn3)sc21)OC(C)C` [Compound I-4, (R)-2-(1-(2-(5-fluoro-2-methoxyphenyl)-2-isopropoxyethyl)-5-methyl-2,4-dioxo-6-(2H-1,2,3-triazol-2-yl)-1,4-dihydrothieno[2,3-d]pyrimidin-3(2H)-yl)-N-isopropyl-2-methylpropanamide], the IC90 in test [1] (setting [9]) amounted to 0.08 µg/mL (≈ 0.136 µM); in test [1] (setting [10]), 0.08 µg/mL (≈ 0.136 µM); in test [2], 0.08 µg/mL (≈ 0.136 µM); with Septoria tritici (St) (setting [11]), 2 µg/mL (≈ 3.41 µM); in the test on Septoria tritici (St) (setting [12]), 10 µg/mL (≈ 17 µM). Moreover, the “Concentration at 90% Inhibition Fm” value in test [2] (setting [5]) is on record as “AA (compound concentration of 0.08 ppm at 90% inhibition of fungal pathogens)”.
In the case of `COc1ccc(F)cc1[C@H](Cn1c(=O)n(C(C)(C)C(=O)N2CCOCC2)c(=O)c2c(C)c(-n3nccn3)sc21)OC(C)C` [Compound I-5, (R)-1-(2-(5-fluoro-2-methoxyphenyl)-2-isopropoxyethyl)-5-methyl-3-(2-methyl-1-morpholino-1-oxopropan-2-yl)-6-(2H-1,2,3-triazol-2-yl)thieno[2,3-d]pyrimidine-2,4(1H,3H)-dione], the IC90 in test [1] (setting [9]) was 2 µg/mL (≈ 3.25 µM); in test [1] (setting [10]) it was 2 µg/mL (≈ 3.25 µM); in test [2], 0.08 µg/mL (≈ 0.13 µM); in the test on Septoria tritici (St) (setting [11]) it was 10 µg/mL (≈ 16.3 µM); in the test with Septoria tritici (St) (setting [12]), above 50 µg/mL. For the same compound, the “Concentration at 90% Inhibition Fm” value in test [2] (setting [5]) is “AA (compound concentration of 0.08 ppm at 90% inhibition of fungal pathogens)”.
For `COc1ccc(F)cc1[C@H](Cn1c(=O)n(C(C)(C)C(=O)N2CCCCC2)c(=O)c2c(C)c(-n3nccn3)sc21)OC(C)C` [Compound I-6, (R)-1-(2-(5-fluoro-2-methoxyphenyl)-2-isopropoxyethyl)-5-methyl-3-(2-methyl-1-oxo-1-(piperidin-1-yl)propan-2-yl)-6-(2H-1,2,3-triazol-2-yl)thieno[2,3-d]pyrimidine-2,4(1H,3H)-dione], the IC90 in test [1] (setting [9]) was determined as 0.08 µg/mL (≈ 0.131 µM); in test [1] (setting [10]), 0.08 µg/mL (≈ 0.131 µM); in test [2], 0.08 µg/mL (≈ 0.131 µM); in the test with Septoria tritici (St) (setting [11]), 2 µg/mL (≈ 3.26 µM); in the test with Septoria tritici (St) (setting [12]) it was 10 µg/mL (≈ 16.3 µM). The “Concentration at 90% Inhibition Fm” value in test [2] (setting [5]) is “AA (compound concentration of 0.08 ppm at 90% inhibition of fungal pathogens)”.
For the compound `COc1ccc(F)cc1[C@H](Cn1c(=O)n(C(C)(C)C(=O)N2CCCC2)c(=O)c2c(C)c(-n3nccn3)sc21)OC(C)C` [Compound I-7, (R)-1-(2-(5-fluoro-2-methoxyphenyl)-2-isopropoxyethyl)-5-methyl-3-(2-methyl-1-oxo-1-(pyrrolidin-1-yl)propan-2-yl)-6-(2H-1,2,3-triazol-2-yl)thieno[2,3-d]pyrimidine-2,4(1H,3H)-dione], the IC90 was 0.08 µg/mL (≈ 0.134 µM) in test [1] (setting [3]); 0.08 µg/mL (≈ 0.134 µM) in test [1] (setting [4]); 0.08 µg/mL (≈ 0.134 µM) in test [2] (setting [5]); 0.08 µg/mL (≈ 0.134 µM) in test [2] (setting [6]); 10 µg/mL (≈ 16.7 µM) in the test on Septoria tritici (St) (setting [7]); above 50 µg/mL in the test on Septoria tritici (St) (setting [8]).
With `COc1ccc(F)cc1[C@H](Cn1c(=O)n(C(C)(C)C(N)=O)c(=O)c2c(C)c(-n3nccn3)sc21)OCC(C)C` [Compound I-8, (R)-2-(1-(2-(5-fluoro-2-methoxyphenyl)-2-isobutoxyethyl)-5-methyl-2,4-dioxo-6-(2H-1,2,3-triazol-2-yl)-1,4-dihydrothieno[2,3-d]pyrimidin-3(2H)-yl)-2-methylpropanamide], the IC90 in test [1] (setting [3]) is 2 µg/mL (≈ 3.58 µM); in test [1] (setting [4]), 2 µg/mL (≈ 3.58 µM); in test [2] (setting [5]) it was 0.08 µg/mL (≈ 0.143 µM); in test [2] (setting [6]), 0.08 µg/mL (≈ 0.143 µM); in the test with Septoria tritici (St) (setting [7]) it was above 50 µg/mL; with Septoria tritici (St) (setting [8]), above 50 µg/mL.
In the case of `CCNC(=O)C(C)(C)n1c(=O)c2c(C)c(-n3nccn3)sc2n(C[C@H](OCC(C)C)c2cc(F)ccc2OC)c1=O` [Compound I-9, (R)—N-ethyl-2-(1-(2-(5-fluoro-2-methoxyphenyl)-2-isobutoxyethyl)-5-methyl-2,4-dioxo-6-(2H-1,2,3-triazol-2-yl)-1,4-dihydrothieno[2,3-d]pyrimidin-3(2H)-yl)-2-methylpropanamide], the IC90 was 0.4 µg/mL (≈ 0.682 µM) in test [1] (setting [3]); 0.4 µg/mL (≈ 0.682 µM) in test [1] (setting [4]); 0.08 µg/mL (≈ 0.136 µM) in test [2] (setting [5]); 0.08 µg/mL (≈ 0.136 µM) in test [2] (setting [6]); 10 µg/mL (≈ 17 µM) in the test on Septoria tritici (St) (setting [7]); above 50 µg/mL in the test with Septoria tritici (St) (setting [8]).
Consider `COc1ccc(F)cc1[C@H](Cn1c(=O)n(C(C)(C)C(=O)N2CCCCC2)c(=O)c2c(C)c(-n3nccn3)sc21)OCC(C)C` [Compound I-11, (R)-1-(2-(5-fluoro-2-methoxyphenyl)-2-isobutoxyethyl)-5-methyl-3-(2-methyl-1-oxo-1-(piperidin-1-yl)propan-2-yl)-6-(2H-1,2,3-triazol-2-yl)thieno[2,3-d]pyrimidine-2,4(1H,3H)-dione], for which the IC90 in test [1] (setting [9]) is 0.4 µg/mL (≈ 0.638 µM); in test [1] (setting [10]), 0.4 µg/mL (≈ 0.638 µM); in test [2], 0.08 µg/mL (≈ 0.128 µM); in the test on Septoria tritici (St) (setting [11]) it was 10 µg/mL (≈ 16 µM); in the test on Septoria tritici (St) (setting [12]), above 50 µg/mL. The “Concentration at 90% Inhibition Fm” value in test [2] (setting [5]) is listed as “AA (compound concentration of 0.08 ppm at 90% inhibition of fungal pathogens)”.
For `COc1ccc(F)cc1[C@H](Cn1c(=O)n(C(C)(C)C(=O)N2CCCC2)c(=O)c2c(C)c(-n3nccn3)sc21)OCC(C)C` [Compound I-12, (R)-1-(2-(5-fluoro-2-methoxyphenyl)-2-isobutoxyethyl)-5-methyl-3-(2-methyl-1-oxo-1-(pyrrolidin-1-yl)propan-2-yl)-6-(2H-1,2,3-triazol-2-yl)thieno[2,3-d]pyrimidine-2,4(1H,3H)-dione], the IC90 is 0.08 µg/mL (≈ 0.131 µM) in test [1] (setting [3]); 0.08 µg/mL (≈ 0.131 µM) in test [1] (setting [4]); 0.08 µg/mL (≈ 0.131 µM) in test [2] (setting [5]); 0.08 µg/mL (≈ 0.131 µM) in test [2] (setting [6]); 2 µg/mL (≈ 3.26 µM) in the test with Septoria tritici (St) (setting [7]); 10 µg/mL (≈ 16.3 µM) in the test on Septoria tritici (St) (setting [8]).
Consider `COc1ccccc1[C@H](Cn1c(=O)n(C(C)(C)C(N)=O)c(=O)c2c(C)c(-n3nccn3)sc21)OC1CCOCC1` [Compound I-14, (R)-2-(1-(2-(2-methoxyphenyl)-2-((tetrahydro-2H-pyran-4-yl)oxy)ethyl)-5-methyl-2,4-dioxo-6-(2H-1,2,3-triazol-2-yl)-1,4-dihydrothieno[2,3-d]pyrimidin-3(2H)-yl)-2-methylpropanamide], for which the IC90 in test [1] (setting [3]) is 10 µg/mL (≈ 17.6 µM); in test [1] (setting [4]), above 50 µg/mL; in test [2] (setting [5]) it was 0.08 µg/mL (≈ 0.141 µM); in test [2] (setting [6]), 0.08 µg/mL (≈ 0.141 µM); with Septoria tritici (St) (setting [7]) it was above 50 µg/mL; in the test with Septoria tritici (St) (setting [8]), above 50 µg/mL.
For `CCNC(=O)C(C)(C)n1c(=O)c2c(C)c(-n3nccn3)sc2n(C[C@H](OC2CCOCC2)c2ccccc2OC)c1=O` [Compound I-15, (R)—N-ethyl-2-(1-(2-(2-methoxyphenyl)-2-((tetrahydro-2H-pyran-4-yl)oxy)ethyl)-5-methyl-2,4-dioxo-6-(2H-1,2,3-triazol-2-yl)-1,4-dihydro-thieno[2,3-d]pyrimidin-3(2H)-yl)-2-methylpropanamide], the IC90 in test [1] (setting [3]) is 2 µg/mL (≈ 3.35 µM); in test [1] (setting [4]) it was 10 µg/mL (≈ 16.8 µM); in test [2] (setting [5]), 0.08 µg/mL (≈ 0.134 µM); in test [2] (setting [6]), 0.08 µg/mL (≈ 0.134 µM); with Septoria tritici (St) (setting [7]) it was above 50 µg/mL; in the test with Septoria tritici (St) (setting [8]), above 50 µg/mL.
